Reference: BindingDB's records for doi:10.1021/jm970814z (University of Sydney, 1998)
“And” between values parts separate entries of the source, which are not always exact repeats. Identical values can stand only once.

Biological target: CAD protein (Mesocricetus auratus)
Assay: Compound ability to inhibit the catalytic activity of hamster Dihydroorotase (DHOase) expressed in Escherichia coli.

Row | Structure (SMILES) | Ki
1 | O=C1CP(O)(O)=CC(C(=O)O)N1 (configuration not stated) [4-Hydroxy-4,6-dioxo-4lambda*5*-[1,4]azaphosphinane-2-carboxylic acid] | 4 µM
2 | O=C1CP(O)(S)=C[C@@H](C(=O)O)N1 (stereo partly drawn) [(2R,4S)-4-Mercapto-4,6-dioxo-4lambda*5*-[1,4]azaphosphinane-2-carboxylic acid] | 2.9 µM and 3.1 µM
